These results are taken from US10925960B2, “Antigen delivery system” (SRI INTERNATIONAL, priority 2014, dated 2021).

Each structure is given as a SMILES string.

The subject of the experiment is LLC1 cells. Put plainly: Coculture of liposome-treated LLC1 cells with lymphocytes from H250-vaccinated C57BL/6 mice, IFNγ secretion. The class given is cell-based, mouse. To be noted: LLC1 cells treated with H1299.3-targeted liposomes containing H250 in presence of inhibitor, fixed, cocultured with lymphocytes. The method, then: We then generated murine CD8+ cells with TCR that recognizes MHC class I loaded H250 (1) by vaccinating C57BL/6 mice with an extended version of H250 and subsequently harvesting lymphocytes as a source of CD8+ T cells. LLC1 cells were treated with control or H1299.3-targeted liposomes containing H250, washed, and then incubated.
After allowing trafficking of the peptides to occur, the LLC1 cells were fixed and cocultured with lymphocytes as previously described.
Consider `CCN(CC)CCCC(C)Nc1ccnc2cc(Cl)ccc12` (stereo not drawn) [chloroquine], for which the “Effect of inhibitor on IFNγ secretion / H250 presentation” value is “significant reduction in IFNγ secretion”.

With `CN(C)CCCN1c2ccccc2Sc2ccc(Cl)cc21` [Chlorpromazine], the “Effect of inhibitor on IFNγ secretion / H250 presentation” value is given as “reduced presentation”. As to `C[C@@H]1[C@H](O)[C@@H](C)/C=C/C=C/CC/C=C/C=C/C=C/C=C/C(O[C@H]2O[C@H](C)[C@@H](O)[C@H](N)[C@@H]2O)CC2O[C@](O)(CC(O)C(O)CCC(O)CC(O)CC(O)CC(=O)O[C@H]1C)CC(O)C2C(=O)O` (stereo partly drawn) [Nystatin], the “Effect of inhibitor on IFNγ secretion / H250 presentation” value is given as “no effect”.
